Reference: US20080194614A1, “Combination of Organic Compounds” (priority 2005, published 2008)

Columns and labels:
[1] = 4-week toxicity study in monkeys; assay type: in vivo
Protocol: (§1) Rapamycin or derivatives thereof are well tolerated at dosages required for use in accordance with the present invention. For example, the NTEL for Compound A in a 4-week toxicity study is 0.5 mg/kg/day in rats and 1.5 mg/kg/day in monkeys.

[2] = 4-week toxicity study in rats; assay type: in vivo
Protocol: as §1

For `CO[C@H]1C[C@@H]2CC[C@@H](C)[C@@](O)(O2)C(=O)C(=O)N2CCCC[C@H]2C(=O)O[C@H]([C@H](C)C[C@@H]2CC[C@@H](OCCO)[C@H](OC)C2)CC(=O)[C@H](C)/C=C(\C)[C@@H](O)[C@@H](OC)C(=O)[C@H](C)C[C@H](C)/C=C/C=C/C=C/1C` [Compound A, 40-0-(2-hydroxyethyl)-rapamycin], the NTEL [1] was 1.5 mg/kg/day and the NTEL [2] was 0.5 mg/kg/day.
